Several values for one entry are separate records, joined by “and”; a condition that tells them apart may be missing. Equal entries are not always repeated. Inconclusive results and toxic doses are left out.

In this assay the test system is BDF1 mice, B16 melanoma ip, median survival T/C. The assay is described as follows: NCI In Vivo Anticancer Drug Screen. Data for tumor model B16 Melanoma (intraperitoneal) in B6D2F1 (BDF1) mice. Conditions: endpoint: median survival time, higher = longer survival. In outline: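 Each result divides a survival or tumor-size measurement in the compound-treated group by the same measurement in the vehicle group.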

[1] abbreviates: dose: 25.0 mg/kg/injection, schedule: Q01DX009 (ip), vehicle: saline with Tween-80.
Setting [2] is: dose: 50.0 mg/kg/injection, schedule: Q01DX009 (ip), vehicle: saline with Tween-80.
The mark [3] stands for this setting: dose: 100.0 mg/kg/injection, schedule: Q01DX009 (ip), vehicle: Klucel (hydroxypropylcellulose) (HPC).
[4] abbreviates: dose: 100.0 mg/kg/injection, schedule: Q01DX009 (ip), vehicle: saline with Tween-80.
Where [5] appears, read: dose: 6.25 mg/kg/injection, schedule: Q01DX009 (ip), vehicle: Klucel (hydroxypropylcellulose) (HPC).
Setting [6] is: dose: 1.25 mg/kg/injection, schedule: Q01DX009 (ip), vehicle: saline with Tween-80.
Setting [7] is: dose: 2.5 mg/kg/injection, schedule: Q01DX009 (ip), vehicle: saline with Tween-80.
Where [8] appears, read: dose: 5.0 mg/kg/injection, schedule: Q01DX009 (ip), vehicle: saline with Tween-80.
[9] abbreviates: dose: 12.5 mg/kg/injection, schedule: Q01DX009 (ip), vehicle: saline sonified.
The mark [10] stands for this setting: dose: 25.0 mg/kg/injection, schedule: Q01DX009 (ip), vehicle: saline sonified.
[11] abbreviates: dose: 50.0 mg/kg/injection, schedule: Q01DX009 (ip), vehicle: saline sonified.
[12] abbreviates: dose: 25.0 mg/kg/injection, schedule: Q01DX009 (ip), vehicle: Klucel (hydroxypropylcellulose) (HPC).
[13] abbreviates: dose: 50.0 mg/kg/injection, schedule: Q01DX009 (ip), vehicle: Klucel (hydroxypropylcellulose) (HPC).

For the molecule `CN(C)CC/C=C1/c2ccccc2COc2ccccc21`, the T/C reads like this: (dose: 3.12 mg/kg/injection, schedule: Q01DX009 (ip), vehicle: saline) 112 % of control; (dose: 6.25 mg/kg/injection, schedule: Q01DX009 (ip), vehicle: saline) 102 % of control; (dose: 12.5 mg/kg/injection, schedule: Q01DX009 (ip), vehicle: saline) 105 % of control; (dose: 25.0 mg/kg/injection, schedule: Q01DX009 (ip), vehicle: saline) 112 % of control; (dose: 50.0 mg/kg/injection, schedule: Q01DX009 (ip), vehicle: saline) 105 % of control.
`CC(=O)Oc1ccc(OC(C)=O)c2c1C(=O)C=CC2=O`: the T/C was 86 % of control (dose: 0.5 mg/kg/injection, schedule: Q01DX009 (ip), vehicle: Klucel (hydroxypropylcellulose) (HPC)) and 88 % of control (dose: 1.0 mg/kg/injection, schedule: Q01DX009 (ip), vehicle: Klucel (hydroxypropylcellulose) (HPC)).
On to `O=c1[nH][nH]c(=O)n1O`, for which the T/C by setting is: (dose: 130.0 mg/kg/injection, schedule: Q01DX009 (ip), vehicle: saline) 112 % of control; (dose: 200.0 mg/kg/injection, schedule: Q01DX009 (ip), vehicle: saline) 103 % of control; (dose: 300.0 mg/kg/injection, schedule: Q01DX009 (ip), vehicle: saline) 115 % of control.
With `COC1C(O)C(C)OC(OC2C(Oc3cccc4c(O)c5c(=O)oc6ccc(C)c7c(=O)oc(c34)c5c67)OC(C)C(O)C2O)C1O` (stereo not drawn), the T/C by setting is: (dose: 16.0 mg/kg/injection, schedule: Q04DX003 (ip), vehicle: saline with Tween-80) 107 % of control; under setting [1], 183 % of control; (dose: 32.0 mg/kg/injection, schedule: Q04DX003 (ip), vehicle: saline with Tween-80) 101 % of control; (dose: 50.0 mg/kg/injection, schedule: Q01DX009 (ip), vehicle: carboxymethylcellulose (CMC)) 179 % of control; under setting [2], 199 % of control; (dose: 64.0 mg/kg/injection, schedule: Q04DX003 (ip), vehicle: saline with Tween-80) 122 % of control. In addition, the T/C under setting [3] was 119 % of control; the T/C (dose: 100.0 mg/kg/injection, schedule: Q01DX009 (ip), vehicle: carboxymethylcellulose (CMC)) was 206 % of control; the T/C under setting [4] was 185 % of control; the T/C (dose: 128.0 mg/kg/injection, schedule: Q04DX003 (ip), vehicle: saline with Tween-80) is 119 % of control.
`O[C@H](c1cc(C(F)(F)F)nc2c(C(F)(F)F)cccc12)[C@@H]1CCCCN1`: the T/C was 97 % of control (dose: 0.78 mg/kg/injection, schedule: Q01DX009 (ip), vehicle: Klucel (hydroxypropylcellulose) (HPC)); 104 % of control (dose: 1.56 mg/kg/injection, schedule: Q01DX009 (ip), vehicle: Klucel (hydroxypropylcellulose) (HPC)); 113 % of control (dose: 3.12 mg/kg/injection, schedule: Q01DX009 (ip), vehicle: Klucel (hydroxypropylcellulose) (HPC)); 113 % of control (dose: 4.5 mg/kg/injection, schedule: Q04DX003 (ip), vehicle: Klucel (hydroxypropylcellulose) (HPC)); 90 % of control under setting [5]; 100 % of control (dose: 9.0 mg/kg/injection, schedule: Q04DX003 (ip), vehicle: Klucel (hydroxypropylcellulose) (HPC)).
In the case of `Nc1nc(=S)c2ncn(C3CC(O)C(CO)O3)c2[nH]1` (stereo not drawn), the T/C runs as follows: under setting [6], 104 % of control; (dose: 1.25 mg/kg/injection, schedule: Q01DX009 (ip), vehicle: saline) 102 % of control; under setting [7], 117 % of control; (dose: 2.5 mg/kg/injection, schedule: Q01DX009 (ip), vehicle: saline) 93 % of control; under setting [8], 113 % of control; (dose: 5.0 mg/kg/injection, schedule: Q01DX009 (ip), vehicle: saline) 104 % of control. Further, the T/C reads like this: (dose: 10.0 mg/kg/injection, schedule: Q01DX009 (ip), vehicle: saline) 104 % of control; under setting [9], 112 % of control; (dose: 20.0 mg/kg/injection, schedule: Q01DX009 (ip), vehicle: saline) 100 % of control; under setting [10], 110 % of control; under setting [11], 87 % of control.
Take `CC(=O)CC(=O)OCc1ccccc1`: the T/C was 107 % of control under setting [4]; 105 % of control (dose: 200.0 mg/kg/injection, schedule: Q01DX009 (ip), vehicle: saline with Tween-80); 100 % of control (dose: 400.0 mg/kg/injection, schedule: Q01DX009 (ip), vehicle: saline with Tween-80).
As for `O=C1C=CC(=O)c2c(O)c(CBr)c(CBr)c(O)c21`, the T/C under setting [5] was 102 % of control; the T/C (dose: 12.5 mg/kg/injection, schedule: Q01DX009 (ip), vehicle: Klucel (hydroxypropylcellulose) (HPC)) is 101 % of control; the T/C under setting [12] is 100 % of control; the T/C under setting [13] is 94 % of control.
On to `O=c1[nH]cc(F)c(=O)n1-c1ccco1`, for which the T/C was 122 % of control (dose: 12.5 mg/kg/injection, schedule: Q01DX011 (ip), vehicle: saline with Tween-80) and 115 % of control (dose: 25.0 mg/kg/injection, schedule: Q01DX011 (ip), vehicle: saline with Tween-80).
In the case of `Cc1ccc2no[n+]([O-])c2c1[N+](=O)[O-]`, the T/C under setting [1] is 93 % of control, the T/C under setting [2] is 97 % of control and the T/C under setting [4] was 98 % of control.
With `O=[N+]([O-])c1cc(Br)cc2c1nc(Cl)c1ccccc12`, the T/C was 94 % of control under setting [2] and 88 % of control under setting [4].
For the molecule `CCC(=O)c1ccc(NC(C)=O)cc1`, the T/C is 102 % of control (dose: 100.0 mg/kg/injection, schedule: Q04DX003 (ip), vehicle: Klucel (hydroxypropylcellulose) (HPC)); 96 % of control (dose: 200.0 mg/kg/injection, schedule: Q04DX003 (ip), vehicle: Klucel (hydroxypropylcellulose) (HPC)); 98 % of control (dose: 400.0 mg/kg/injection, schedule: Q04DX003 (ip), vehicle: Klucel (hydroxypropylcellulose) (HPC)).
Turning to `CCC1=C(c2cc(Cl)c3ccccc3c2OCC(=O)O)OC(CC)(C(=O)c2cc(Cl)c3ccccc3c2OCC(=O)O)CC1` (stereo not drawn), the T/C runs as follows: under setting [12], 102 % of control; (dose: 30.0 mg/kg/injection, schedule: Q01DX009 (ip), vehicle: saline with Tween-80) 90 % of control; under setting [13], 102 % of control; (dose: 60.0 mg/kg/injection, schedule: Q01DX009 (ip), vehicle: saline with Tween-80) 93 % of control; under setting [3], 102 % of control; (dose: 100.0 mg/kg/injection, schedule: Q04DX003 (ip), vehicle: saline with Tween-80) 110 % of control. The T/C by setting is: (dose: 120.0 mg/kg/injection, schedule: Q01DX009 (ip), vehicle: saline with Tween-80) 93 % of control; (dose: 200.0 mg/kg/injection, schedule: Q04DX003 (ip), vehicle: saline with Tween-80) 95 % of control; (dose: 240.0 mg/kg/injection, schedule: Q01DX009 (ip), vehicle: saline with Tween-80) 86 % of control.
In the case of `CCCCCCCCCCCCCC[N+](C)(C)CC(=O)O`, the T/C (dose: 12.5 mg/kg/injection, schedule: Q01DX009 (ip), vehicle: saline with Tween-80) is 93 % of control; the T/C under setting [1] was 91 % of control; the T/C under setting [2] was 86 % of control.
In the case of `CCCCNC(C)(C)COC(=O)/C=C/c1ccc(OCCCC)cc1`, the T/C is 97 % of control under setting [9]; 97 % of control under setting [10]; 104 % of control under setting [11]; 93 % of control (dose: 100.0 mg/kg/injection, schedule: Q01DX009 (ip), vehicle: saline sonified).
For `O=Nc1c(N=O)c(N=O)c(N=O)c(N=O)c1N=O`, the T/C under setting [6] is 108 % of control; the T/C under setting [7] is 105 % of control; the T/C under setting [8] was 88 % of control and 100 % of control; the T/C (dose: 10.0 mg/kg/injection, schedule: Q01DX009 (ip), vehicle: saline with Tween-80) was 104 % of control; the T/C (dose: 20.0 mg/kg/injection, schedule: Q01DX009 (ip), vehicle: saline with Tween-80) was 87 % of control.
`CNC(C)Cc1ccccc1` (stereo not drawn): the T/C reads like this: (dose: 3.75 mg/kg/injection, schedule: Q01DX009 (ip), vehicle: saline) 95 % of control; (dose: 15.0 mg/kg/injection, schedule: Q01DX009 (ip), vehicle: saline) 95 % of control; (dose: 30.0 mg/kg/injection, schedule: Q01DX009 (ip), vehicle: saline) 95 % of control.

The record behind these values is PubChem BioAssay AID192 (DTP/NCI, 2004).
